Structures can show the parent of a compound that is named as a salt.
What was measured:
[1] = Acute toxicity (LD50), intravenous administration to mice; settings: mouse, in vivo
rat's blood = test: Anticoagulant activity (blood coagulation time by thrombelastograph); settings: compound 1×10^-4 M, thrombelastogram
Method: A compound to be tested was dissolved into a physiological saline solution so as to have the final concentration of 1×10^-4 M and then cooled down by ice. A 0.05 ml of the thus prepared solution was added with 0.5 ml of rat's blood, followed by subjecting the obtained solution to a thrombelastograph (manufactured by Hellige Company). The blood coagulation time (r+k value) was determined by the obtained thrombelastogram.

thrombin = thrombin (Homo sapiens, UniProt P00734); test: Thrombin inhibitory activity; type: biochemical; settings: pH 7.4, 37° C., substrate Boc-Val-Pro-Arg-MCA; read-out: Concentration for 50% inhibition, thrombin
Method: To 0.1 ml of a dimethylsulfoxide solution of each of compounds to be tested were added 0.3 ml of a 0.1M phosphate buffer solution (pH 7.4) and 0.1 ml of a thrombin solution containing 100 mu/ml of thrombin in the buffer solution, followed by incubation at 37° C. for 10 minutes. To the solution was added […] of dimethylformamide solution of 10 mM Boc-Val-Pro-Arg-MCA for reaction at 37° C. for 30 minutes. Thereafter, the inhibition rate was calculated similar to the case of trypsin.

Solubility = type: physicochemical; settings: pH 3.57
trypsin = target: T1, trypsin (Bos taurus, UniProt P00760); test: Trypsin inhibitory activity; type: biochemical; settings: pH 8.0, 37° C., substrate Boc-Phe-Ser-Arg-MCA; read-out: Concentration for 50% inhibition, trypsin
T1 sequence (P00760 24-246): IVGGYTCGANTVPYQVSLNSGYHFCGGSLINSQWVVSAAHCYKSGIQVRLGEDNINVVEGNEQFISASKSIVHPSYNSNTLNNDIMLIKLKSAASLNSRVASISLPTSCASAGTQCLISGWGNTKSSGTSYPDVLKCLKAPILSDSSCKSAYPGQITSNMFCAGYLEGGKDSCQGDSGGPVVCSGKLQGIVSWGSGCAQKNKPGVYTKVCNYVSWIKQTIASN
Method: To 0.1 ml of a dimethylsulfoxide solution of a compound to be tested were added 0.3 ml of a 0.1M trishydrochloric acid buffer solution (pH 8.0) containing 10 mM of calcium chloride and 0.1 ml of a solution of 50 ng/ml of trypsin dissolved in the buffer solution, followed by incubation at 37° C. and 10 minutes. Thereafter, 5 microliters of a dimethylformamide solution of 10 mM Boc-Phe-Ser-Arg-MCA, followed by reaction at 37° C. for 30 minutes and addition of 0.5 ml of a 10% acetic acid solution to stop the reaction. The fluorecence of produced 7-amino-4-methylcumarin was measured by the use of a fluorometer (Fluorometer 650-40, by Hitachi Ltd.) under conditions of an excitation wavelength of 380 nm, a wavelength of the fluorescence of 460 nm and a slit width of 2 mm.
The inhibition rate of the respective compounds to be tested was calculated according to the following equation. [formula] in which T represents a measured value of "test specimen+enzyme+substrate", E represents a measured value of "enzyme+substrate", and S represents a measured value of "substrate".

SMILES	LD50 [1] [mg/kg]	Blood coagulation time (r+k value) (rat's blood) [min]	IC50 (thrombin) [nM]	solubility (Solubility) [mg/mL]	IC50 (trypsin) [nM]
N=C(N)Nc1ccc(C(=O)Oc2ccc(C(=O)N3CCN(CC(N)=O)CC3)cc2)cc1 [Example 2, 4-[4-(carbamoylmethyl)piperazinocarbonyl]phenyl 4-guanidinobenzoate.dihydrochloride]	150 to 200	26.7 ± 3.3	200	> 100	20
N=C(N)Nc1ccc(C(=O)Oc2ccc(C(=O)N3CCN(CC(=O)N4CCOCC4)CC3)cc2)cc1 [Example 6, 4-[4-(Morpholynocarbonylmethyl)piperazinocarbonyl]phenyl 4-guanidinobenzoate.dihydrochloride]	150 to 200	15.3 ± 3.1	400	–	6
N=C(N)Nc1ccc(C(=O)Oc2ccc(C(=O)N3CCN(CC(=O)N4CCCC4)CC3)cc2)cc1 [Example 7, 4-[4-(Pyrrolidinocarbonylmethyl)piperazino-carbonyl]phenyl 4-guanidinobenzoate.dihydrochloride]	100 to 150	9.7 ± 0.3	400	–	7
CC(C)NC(=O)CN1CCN(C(=O)c2ccc(OC(=O)c3ccc(NC(=N)N)cc3)cc2)CC1 [Example 9, 4-[4-(Isopropylcarbamoylmethyl)piperazinocarbonyl]phenyl 4-guanidinobenzoate.dihydrochloride]	150 to 200	18.5	400	–	10
CCOC(=O)CN1CCN(C(=O)c2ccc(OC(=O)c3ccc(NC(=N)N)cc3)cc2)CC1 [Example 10, 4-[4-(Ethoxycarbonylmethyl)piperazinocarbonyl]phenyl 4-guanidinobenzoate.dihydrochloride]	150 to 200	10	400	–	20
COc1cc(C(=O)N2CCN(C(C)C)CC2)cc(OC)c1OC(=O)c1ccc(NC(=N)N)cc1 [Example 11, 4-(4-Isopropylpiperazinocarbonyl)-3,5-dimethoxyphenyl 4-gunanidinobenzoate.dihydrochloride]	50 to 100	–	–	–	400
N=C(N)Nc1ccc(C(=O)Oc2ccc(C(=O)N3CCN(CC(=O)N4CCCCC4)CC3)cc2)cc1 [Example 12, 4-[4-(Piperidinocarbonylmethyl)piperazinocarbonyl]phenyl 4-guanidinobenzoate.dihydrochloride]	100 to 150	14.5	–	–	10
CC(C)N1CCN(C(=O)c2ccc(OC(=O)c3ccc(NC(=N)N)cc3)cc2)CC1 [Example 13, 4-(4-Isopropylpiperazinocarbonyl)phenyl 4-guanidinobenzoate.dihydrochloride]	50 to 100	21 ± 3.9	–	–	20
CC(C(=O)NCCN(C)C)N1CCN(C(=O)c2ccc(OC(=O)c3ccc(NC(=N)N)cc3)cc2)CC1 (centres unmarked) [Example 22, 4-[4-[1-(2-Dimethylaminoethylcarbamoyl)ethyl]piperazinocarbonyl]phenyl 4-guanidinobenzoate.trihydrochloride]	–	20.5 ± 0.8	–	–	40
N=C(N)Nc1ccc(C(=O)Oc2ccc(C(=O)N3CCN(CCNC(=O)OCc4ccccc4)CC3)cc2)cc1 [Example 25, 4-[4-(2-Benzyloxycarbonylaminoethyl)piperazinocarbonyl]phenyl 4-guanidinobenzoate.dihydrochloride]	–	18.8 ± 1.2	–	–	20
N=C(N)Nc1ccc(C(=O)Oc2ccc(C(=O)N3CCN(CC(=O)O)CC3)cc2)cc1 [Example 27, 4-[4-(Guanidinobenzoyloxy)benzoyl]piperazino-acetic acid:dihydrochloride]	–	19.2 ± 2.3	–	–	40
N=C(N)Nc1ccc(C(=O)Oc2ccc(C(=O)N3CCNCC3)cc2)cc1 [Example 29, 4-Piperazinocarbonylphenyl 4-guanidinobenzoate.dihydrochloride]	–	34.8 ± 5.5	–	–	30
CN1CCN(C(=O)c2ccc(OC(=O)c3ccc(NC(=N)N)cc3)cc2)CC1 [Example 30, 4-(4-Methylpiperazinocarbonyl)phenyl 4-guanidinobenzoate.dihydrochloride]	–	16.5 ± 1.6	–	–	30
N=C(N)Nc1ccc(C(=O)Oc2ccc(C(=O)N3CCCN(CC(N)=O)CC3)cc2)cc1 [Example 33, 4-(4-Carbamoylmethylhomopiperazinocarbonyl)phenyl 4-guanidinobenzoate.dihydrochloride]	–	32 ± 2.5	–	–	20
CN(C)CCNC(=O)c1ccc(OC(=O)c2ccc(NC(=N)N)cc2)cc1 [Example 34, 4-(N,N-Dimethylethylenediaminocarbonyl)phenyl 4-guanidinobenzoate.dihydrochloride]	–	41.3 ± 3.9	–	–	10
CN(C)CCN(C)C(=O)c1ccc(OC(=O)c2ccc(NC(=N)N)cc2)cc1 [Example 37, 4-(N,N,N'-Trimethylethylenediaminocarbonyl)phenyl 4-guanidinobenzoate.dihydrochloride]	–	46.5 ± 4.5	–	–	40
CN(CCN(C)C(=O)c1ccc(OC(=O)c2ccc(NC(=N)N)cc2)cc1)CC(N)=O [Example 38, 4-[(N-Carbamoylmethyl-N,N'-dimethylethylenediamino)carbonyl]phenyl 4-guanidinobenzoate.dihydrochloride]	–	34.2 ± 1.6	–	–	30
CN(C)C(=O)COC(=O)Cc1ccc(OC(=O)c2ccc(NC(=N)N)cc2)cc1 [Reference compound A, reference compound]	280	9.8 ± 0.6	–	–	50
CCOC(=O)c1ccc(OC(=O)CCCCCNC(=N)N)cc1 [Reference compound B, reference compound]	313	9.8 ± 1.6	–	–	400

From patent publication US4746737A, “Phenyl guanidinobenzoate derivatives which have protease inhibitory activity” (Kowa Co., Ltd., priority 1985, dated 1988)
